Test results published in patent publication US7994329B2, “Growth hormone secretagogue receptor type 1A agonists” (Helsinn Therapeutics (U.S.), Inc., priority 2000, dated 2011).
Where two headings read alike, the source gives them in different places. No end group written: not given here.

Columns and labels:
[1] = target: T1, GHS-R 1A (Homo sapiens, UniProt Q92847); test: Receptor binding assay, membranes of BHK/GHS-R 1A cells
T1 construct: expressed in transfected cells; host or cells: BHK cells, stably transfected
T1 sequence (Q92847 whole entry): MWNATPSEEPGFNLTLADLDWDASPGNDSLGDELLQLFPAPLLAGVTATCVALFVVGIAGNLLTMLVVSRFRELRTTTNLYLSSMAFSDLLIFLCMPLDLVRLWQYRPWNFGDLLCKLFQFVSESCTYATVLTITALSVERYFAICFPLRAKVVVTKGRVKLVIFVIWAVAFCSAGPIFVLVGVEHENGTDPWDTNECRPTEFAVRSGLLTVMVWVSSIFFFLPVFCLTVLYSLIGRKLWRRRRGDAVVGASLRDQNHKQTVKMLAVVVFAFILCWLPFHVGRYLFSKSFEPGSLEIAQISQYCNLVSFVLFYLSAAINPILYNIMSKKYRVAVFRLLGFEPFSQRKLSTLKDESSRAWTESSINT
Description: Briefly, crude membranes from stably transfected BHK/GHS-R 1A cells were suspended at 0.5 mg protein/ml in homogenization buffer (25 mM Tris-base, 2.5 mM EDTA, 10 mM MgCl2 and 30 μg/ml bacitracin). […] The filters were subsequently washed in 0.9% NaCl and counted using an Optiphase™ ‘HiSafe 3’ counter (Wallac, Turku, Finland).
Specific binding was determined as the difference between total binding and non-specific binding (binding in the presence of 10 μM unlabelled ligand). Binding curves were generated using either the non-linear regression or hyperbolic fit feature of the GraphPad™ Prism software package (GraphPad, San Diego, Calif., U.S.A.).

[2] = tested on: food intake; test: Food intake in non-deprived male Wistar rats (feeding boxes); assay type: in vivo, rat; conditions: 3 hours after injection
Description: Food intake was measured in feeding boxes with standard chow and water placed on balances connected to a computer. Changes in weight of chow and water were continuously registered. Food and water intake were measured for 3 hours after drug injection during early daytime, when food intake is normally at a very low level.
The effect on feeding was tested after icy injections in non-deprived male Wistar rats. The compounds were dissolved in 5 μl saline and injected in the following doses: 10.0 μg per rat (NNC 26-1291) and 30.0 μg per rat (NN703 and NNC 26-1187).
Food intake was measured in feeding boxes, where standard chow and water were placed on balances and changes in weight continuously registered. Food and water intake was measured for 3 hours after drug injection in the beginning of the light part of the diurnal cycle, when food intake is normally at a very low level. […] For comparison, food intake in control animals is normally about 1 gram, and icy administration of 10 μg porcine neuropeptide Y (NPY), which has a strong effect on food intake, increases food consumption to about 8 grams in this model.
Non-deprived male Wistar rats (n=6-10) were used for the study, dosed with vehicle or with ghrelin at 10 μg/rat icy dissolved in 5 μl saline. Food intake was measured in conscious animals, using feeding boxes. Food and water intake were measured for 3 hours after drug injection during early daytime, when food intake is normally at a very low level. GH release was measured in Halothane-anaesthetized animals from which blood samples were obtained, before dosing and 10 min after dosing, via the orbital plexus. The plasma was analyzed for rat GH.

[3] = tested on: GH release; test: GH release in anaesthetized rats (plasma rat GH); assay type: in vivo
Description: Blood samples were obtained from anaesthetized animals before dosing, and either 10 min after dosing or by frequent blood sampling through a catheter up until 45 min after dosing. The plasma was analyzed for rat GH.
Non-deprived male Wistar rats (n=6-10) were used for the study, dosed with vehicle or with ghrelin at 10 μg/rat icy dissolved in 5 μl saline. […] GH release was measured in Halothane-anaesthetized animals from which blood samples were obtained, before dosing and 10 min after dosing, via the orbital plexus. The plasma was analyzed for rat GH.

[4] = tested on: GH release; conditions: cited from earlier work
[5] = tested on: rat pituitary cells; test: GH secretion from rat pituitary cells; assay type: cell-based
[6] = read-out: Binding affinity to the GHS-R 1A (Ki)

**Q.** With `CNC(=O)[C@@H](Cc1ccccc1)N(C)C(=O)[C@@H](Cc1ccc2ccccc2c1)N(C)C(=O)/C=C/CC(C)(C)N` [NN703] as the compound, how does the Ki [1, 6] read?
**A.** Its Ki is 112 ± 29 nM.

**Q.** What about the Food intake ([2]; 30.0 μg per rat icy) of the same compound?
**A.** Its Food intake is “about 3 grams”.

**Q.** For “ghrelin (GSSFLSPEHQRVQQRKESKKPPAKLQPR; ends and bridges not checked; UniProt Q9UBU3 24-51, looked up) [peptide described by Kojima in Nature (1999), vol; 402, 656-660, reference compound]”, which “GH release after icy administration” value ([3]; ghrelin 10 μg/rat icy, Halothane-anaesthetized male Wistar rats, 10 min after dosing) is on record?
**A.** Its value is “did not stimulate GH release”.

**Q.** What about the “Effect on food intake vs vehicle” value ([2]; 10 μg/rat icy) of the same compound?
**A.** The value was “significant effect on feeding”.

**Q.** What about the “GH release after iv administration” value [4] of the same compound?
**A.** Its value is “causes stimulation of GH release”.

**Q.** For `Nc1ncnc2c1ncn2[C@@H]1O[C@H](CO)[C@@H](O)[C@H]1O` [Adenosine, adenosine], which “Stimulation of GH secretion from rat pituitary cells” value [5] is on record?
**A.** Its value is “unable to stimulate GH secretion”.

**Q.** What about the “GH release after intravenous (iv) administration” value ([3]; adenosine 1 mg/kg iv, also 10 mg/kg iv in pentobarbital anaesthetized female SD rats) of the same compound?
**A.** Its value is “did not stimulate GH release”.

**Q.** And the “GH release after intracerebroventricular (icy) administration” value ([3]; adenosine 10 and 100 μg/rat icy, Halothane anaesthetized male Wistar rats)?
**A.** Its value is “did not stimulate GH release”.

**Q.** What about the “Effect on food intake vs vehicle” value ([2]; 1 μg/rat icy) of the same compound?
**A.** The value was “no effect”.

**Q.** What about the “Effect on food intake vs vehicle” value ([2]; 10 μg/rat icy) of the same compound?
**A.** Its value is “food intake was significantly increased”.

**Q.** For `CN(CCc1ccccn1)C(=O)[C@@H](Cc1ccccc1)N(C)C(=O)[C@@H](Cc1ccc2ccccc2c1)N(C)C(=O)/C=C/CC(C)(C)N` [NNC 26-1187], which Ki [1, 6] is on record?
**A.** Its Ki is 22.2 ± 7 nM.

**Q.** Which Ki [1] does the source give for `CN(C)N(C)C(=O)C1(Cc2ccccc2)CCCN(C(=O)[C@@H](Cc2c[nH]c3ccccc23)NC(=O)C(C)(C)N)C1` (stereo partly drawn) [NNC 26-1291] here?
**A.** Its Ki is 0.4 ± 0.06 nM.
